The values that follow come from patent US8008329B2 (Dong Wha Pharmaceutical Co., Ltd., priority 2008, dated 2011).

For this assay, the system named is osteoclast differentiation. In words: Osteoclast differentiation in co-culture of mouse bone marrow cells and ST2 cells, TRAP staining (Examples 8-9). As to conditions: for % number of osteoclast (vs. solvent control group): 0.1 μM each, day 7; for activity at 0.1 µM: Mus musculus, Osteoclast, 168 h, Individual treatment (compounds), day 7, read-out: % number of osteoclast (vs. solvent control group). It is filed as cell-based. The essentials:
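Bone marrow cells from 6-8-week male ddY mice were co-cultured with ST2 stromal cells under 10^−8 M vitamin D3 and 10^−8 M dexamethasone, with compounds at 0.1 μM final (0.1% DMSO control), refreshed on days 3 and 5. On day 7, TRAP-positive osteoclasts with ≥6 nuclei were counted and expressed as % of solvent control (n=4).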

Setting [1] is: Combination treatment (alendronic acid + compounds).
Setting [2] is: Combination treatment (risedronic acid + compounds).

Marks after values point to notes of the source that are not given here.

`CC(C)c1nc(-c2ccc(OCCCCCOc3ccc(C(=N)NO)cc3)cc2)c(CCNCCN2CCOCC2)s1` [Compound 243, N-hydroxy-4-[5-(4-{2-isopropyl-5-[2-(2-morpholin-4-yl-ethylamino)-ethyl]-thiazol-4-yl}-phenoxy)-pentyloxy]-benzamidine]: the activity at 0.1 µM came to 36 ± 4.9%. Further, under setting [1], the “% number of osteoclast (vs. solvent control group)” value (from here on “% number of osteoclast”) is 24 ± 7.7^b %. Under setting [2], the “% number of osteoclast” value is 12 ± 2.3^ac %.
For `CCc1sc(N(Cc2cccnc2)Cc2cccnc2)nc1-c1ccc(OCCCCCOc2ccc(C(=N)NO)cc2)cc1` [Compound 137, N-hydroxy-4-[5-(4-{2-[bis-(pyridin-3-ylmethyl)amino]-5-ethyl-1,3-thiazol-4-yl}phenoxy)pentyloxy]-benzamidine], the activity at 0.1 µM was determined as 19 ± 2.9%. The “% number of osteoclast” value under setting [1] was 11 ± 4.3^b %. Moreover, the “% number of osteoclast” value under setting [2] is given as 7 ± 2.2^ac %.
Take `CCN(CC)CCc1sc(C)nc1-c1ccc(OCCCCCOc2ccc(C(=N)NO)cc2)cc1` [Compound 224, N-hydroxy-4-(5-{4-[5-(2-diethylamino-ethyl)-2-methyl-thiazol-4-yl]-phenoxy}-pentyloxy)-benzamidine]: the activity at 0.1 µM stood at 77 ± 8.4%. Also, the “% number of osteoclast” value under setting [1] was 53 ± 2.9^ab %. Also, the “% number of osteoclast” value under setting [2] came to 58 ± 10.8%.
As for `Cc1nc(-c2ccc(OCc3ccc(COc4ccc(C(=N)NO)cc4)cc3)cc2)c(C(C)C)s1` [Compound 185, N-hydroxy-4-{4-[4-(5-isopropyl-2-methyl-1,3-thiazol-4-yl)-phenoxymethyl]-benzyloxy}-benzamidine], the activity at 0.1 µM is 81 ± 7%. Besides, under setting [1], the “% number of osteoclast” value turned out to be 57 ± 13.9%. Also, the “% number of osteoclast” value under setting [2] is reported as 45 ± 1.4^ac %.
For the compound `CN1CCN(c2sc(N3CCOCC3)nc2-c2ccc(OCCCCCOc3ccc(C(=N)NO)cc3)cc2)CC1` [Compound 289, N-hydroxy-4-(5-{4-[5-(4-methyl-piperazin-1-yl)-2-morpholine-4-yl-thiazol-4-yl]-phenoxy}-pentyloxy)-benzamidine], the activity at 0.1 µM was found to be 36 ± 9.1%. The “% number of osteoclast” value under setting [1] was 21 ± 7.4^b %. Moreover, under setting [2], the “% number of osteoclast” value is 10 ± 3.1^ac %.
Take `CCc1sc(N(CC)CCN2CCOCC2)nc1-c1ccc(OCCCCCOc2ccc(C(=N)NO)cc2)cc1` [Compound 132, N-hydroxy-4-[5-(4-{5-ethyl-2-[ethyl-(2-morpholinoethyl)-amino]-1,3-thiazol-4-yl}phenoxy)pentyloxy]-benzamidine]: the activity at 0.1 µM came out at 62 ± 7.7%. Besides, the “% number of osteoclast” value under setting [1] was 37 ± 8.3^ab %. The “% number of osteoclast” value under setting [2] is recorded as 30 ± 3.4^ac %.
For the compound `CCc1sc(NC(=O)c2ccncc2)nc1-c1ccc(OCCCCCOc2ccc(C(=N)NO)cc2)cc1` [Compound 100, N-hydroxy-4-{5-[4-(5-ethyl-2-(4-pyridylcarbonyl)amino-1,3-thiazol-4-yl)phenoxy]pentyloxy}-benzamidine], the activity at 0.1 µM was determined as 46 ± 8.4%. The “% number of osteoclast” value under setting [1] is reported as 14 ± 6.9^ab %. For the same compound, under setting [2], the “% number of osteoclast” value was 12 ± 3.0^ac %.
For `COCc1sc(C)nc1-c1ccc(OCCCCCOc2ccc(C(=N)NO)cc2)cc1` [Compound 76, N-hydroxy-4-{5-[4-(5-methoxymethyl-2-methyl-1,3-thiazol-4-yl)phenoxy]pentyloxy}-benzamidine], the activity at 0.1 µM worked out at 53 ± 6.5%. Besides, under setting [1], the “% number of osteoclast” value is given as 31 ± 6.8^ab %. Further, the “% number of osteoclast” value under setting [2] is 22 ± 3.8^a %.
Regarding `CCNc1nc(-c2ccc(OCCCCCOc3ccc(C(=N)NO)cc3)cc2)cs1` [Compound 84, N-hydroxy-4-{5-[4-(2-ethylamino-1,3-thiazol-4-yl)phenoxy]pentyloxy}-benzamidine], the activity at 0.1 µM came out at 44 ± 4.3%. Under setting [1], the “% number of osteoclast” value was 30 ± 5.1^ab %. The “% number of osteoclast” value under setting [2] was 6 ± 4.4^ac %.
As for `CCCCc1sc(N(C)C)nc1-c1ccc(OCCCCCOc2ccc(C(=N)NO)cc2)cc1` [Compound 152, N-hydroxy-4-{5-[4-(5-butyl-2-dimethylamino-1,3-thiazol-4-yl)phenoxy]pentyloxy}-benzamidine], the activity at 0.1 µM is 65 ± 2.2%. Moreover, under setting [1], the “% number of osteoclast” value was 46 ± 8.8^b %. Further, the “% number of osteoclast” value under setting [2] was 48 ± 4.9^ac %.
In the case of `CCCNc1nc(-c2ccc(OCCCCCOc3ccc(C(=N)NO)cc3)cc2)c(C)s1` [Compound 88, N-hydroxy-4-{5-[4-(5-methyl-2-propylamino-1,3-thiazol-4-yl)phenoxy]pentyloxy}-benzamidine], the activity at 0.1 µM was 63 ± 7.6%. Further, the “% number of osteoclast” value under setting [1] was found to be 61 ± 11.7%. The “% number of osteoclast” value under setting [2] was 29 ± 4.7^ac %.
The matching figures for `Cc1nc(-c2ccc(OCCCCCOc3ccc(C(=N)NO)cc3)cc2)c(CN2CCOCC2)s1` [Compound 293, N-hydroxy-4-{5-[4-(2-methyl-5-morpholin-4-ylmethyl-thiazol-4-yl)-phenoxy]-pentyloxy}-benzamidine]: 36 ± 10%, 15 ± 2.6^b % and 11 ± 2.6^c %.
Regarding `CNc1nc(-c2ccc(OCCCCCOc3ccc(C(=N)NO)cc3)cc2)c(CC2CCCC2)s1` [Compound 109, N-hydroxy-4-{5-[4-(5-cyclopentylmethyl-2-methylamino-1,3-thiazol-4-yl)phenoxy]pentyloxy}-benzamidine], the activity at 0.1 µM amounted to 60 ± 9.6%. For the same compound, the “% number of osteoclast” value under setting [1] is recorded as 49 ± 9.8^b %. For the same compound, the “% number of osteoclast” value under setting [2] is on record as 30 ± 6.5^ac %.
Regarding `C=Cc1sc(C)nc1-c1ccc(OCCCCCOc2ccc(C(=N)NO)cc2)cc1` [Compound 74, N-hydroxy-4-{5-[4-(5-vinyl-2-methyl-1,3-thiazole-4-yl)phenoxy]pentyloxy}-benzamidine], the activity at 0.1 µM turned out to be 60 ± 0.7%. Under setting [1], the “% number of osteoclast” value is 36 ± 4.3^ab %. The “% number of osteoclast” value under setting [2] is recorded as 28 ± 5.4^ac %.
The matching figures for `CCN(CCO)c1nc(-c2ccc(OCCCCCOc3ccc(C(=N)NO)cc3)cc2)c(C)s1` [Compound 121, N-hydroxy-4-[5-(4-{2-[ethyl-(2-hydroxyethyl) -amino]-5-methyl-1,3-thiazol-4-yl}phenoxy)pentyloxy]-benzamidine]: 95 ± 3.9%, 55 ± 11.1^ab % and 39 ± 5.7^ac %.
Consider `COCCN(CCOC)c1nc(-c2ccc(OCCCCCOc3ccc(C(=N)NO)cc3)cc2)c(C)s1` [Compound 122, N-hydroxy-4-[5-(4-{2-[bis-(2-methoxyethyl) -amino]-5-methyl-1,3-thiazol-4-yl}phenoxy)pentyloxy]-benzamidine], for which the activity at 0.1 µM was found to be 71 ± 4.4%. The “% number of osteoclast” value under setting [1] is recorded as 37 ± 8.1^ab %. In addition, the “% number of osteoclast” value under setting [2] is 49 ± 7.3^ac %.
In the case of `CN(CCN1CCOCC1)c1nc(-c2ccc(OCCCCCOc3ccc(C(=N)NO)cc3)cc2)c(C2CCCC2)s1` [Compound 153, N-hydroxy-4-[5-(4-{5-cyclopentyl-2-[methyl-(2-morpholinoethyl)amino]-1,3-thiazol-4-yl}phenoxy)pentyloxy]-benzamidine], the activity at 0.1 µM is 55 ± 3.1%. The “% number of osteoclast” value under setting [1] was 27 ± 3.5^ab %. The “% number of osteoclast” value under setting [2] is 22 ± 4.5^ac %.
With `CC(C)c1sc(N(C)C)nc1-c1ccc(OCCCCCOc2ccc(C(=N)NO)cc2)cc1` [Compound 161, N-hydroxy-4-{5-[4-(5-isopropyl-2-dimethylamino-1,3-thiazol-4-yl)phenoxy]pentyloxy}-benzamidine], the activity at 0.1 µM turned out to be 79 ± 5.1%. Under setting [1], the “% number of osteoclast” value was 56 ± 4.3^ab %. Under setting [2], the “% number of osteoclast” value is reported as 47 ± 14.0^a %.
For `Cc1nc(-c2ccc(OCCCCCOc3ccc(C(=N)NO)cc3)cc2)c(CNCCCn2ccnc2)s1` [Compound 303, N-hydroxy-4-[5-(4-{5-[(3-imidazol-1-yl-propylamino)-methyl]-2-methyl-thiazol-4-yl}-phenoxy)-pentyloxy]-benzamidine], in that order: 53 ± 10.7%, 12 ± 2.5^ab % and 8 ± 2.2^ac %.
In the case of `N=C(NO)c1ccc(OCCCCCOc2ccc(-c3nc(-c4ccccc4)sc3Cc3ccccc3)cc2)cc1` [Compound 40, N-hydroxy-4-{5-[4-(5-benzyl-2-phenyl-1,3-thiazol-4-yl)phenoxy]pentyloxy}-benzamidine], the activity at 0.1 µM was 66 ± 7.1%. Moreover, the “% number of osteoclast” value under setting [1] was 28 ± 4.1^ab %. The “% number of osteoclast” value under setting [2] is 20 ± 3.4^ac %.
For `CCCNc1nc(-c2ccc(OCCCCCOc3ccc(C(=N)NO)cc3)cc2)c(CC)s1` [Compound 98, N-hydroxy-4-{5-[4-(5-ethyl-2-propylamino-1,3-thiazol-4-yl)phenoxy]pentyloxy}-benzamidine], in that order: 47 ± 3.2%, 29 ± 1.6^ab % and 11 ± 3.2^ac %.
For the compound `CC(C)c1nc(-c2ccc(OCCCCCOc3ccc(C(=N)NO)cc3)cc2)c(CCn2ccnc2)s1` [Compound 242, N-hydroxy-4-(5-{4-[5-(2-imidazol-1-yl-ethyl)-2-isopropyl-thiazol-4-yl]-phenoxy}-pentyloxy)-benzamidine], the activity at 0.1 µM amounted to 58 ± 3.4%. The “% number of osteoclast” value under setting [1] is given as 18 ± 3.5^ab %. Further, under setting [2], the “% number of osteoclast” value was 13 ± 2.8^ac %.
